Results on 31 compounds are retold here after patent publication US20260223850A1, “SUBSTITUTED PYRROLIDONE COMPOUND, PREPARATION METHOD THEREFOR, COMPOSITION AND APPLICATION THEREOF” (QINGDAO KINGAGROOT CHEMICAL COMPOUND CO., LTD., priority 2023, published 2026).

What all share (format): in vivo
The subject of one data set is Huaidao (rice cultivar). Description: Seedling stage sealing experiment for water-seeding (crop safety). The settings on record: 120 g a.i./ha, 15 days, fresh weight control rate; for Huaidao (rice cultivar) plant damage level: seedling stage sealing; for Huaidao (rice cultivar) plant damage level (growth control rate): spray, seedling stage sealing for water-seeding. From the text: (§1) The activity level criteria for plant damage (i.e., growth control rate) are as follows: • Level 9: completely dead; • Level 8: growth control rate greater than or equal to 90% and less than 100%; • Level 7: growth control rate greater than or equal to 80% and less than 90%; • Level 6: growth control rate greater than or equal to 70% and less than 80%; • Level 5: growth control rate greater than or equal to 50% and less than 70%; • Level 4: growth control rate greater than or equal to 30% and less than 50%; • Level 3: growth control rate greater than or equal to 20% and less than 30%; • Level 2: growth control rate greater than or equal to 10% and less than 20%; • Level 1: growth control rate less than 10%; • Level 0: no effect.
(§2) The above growth control rates are fresh weight control rates.
(§3) Echinochloa phyllopogon, Digitaria sanguinalis, Huaidao (rice cultivar), etc. were broadcasted on the surface of nutrition bowls filled with soil and fully covered by soil. The foregoing well-prepared nutrition bowls were then placed in a cultivation box with water filled to a suitable height to keep the soil in the nutrition bowls moist. A test compound of the present invention was individually dissolved with acetone, then diluted into solution of a certain concentration using a certain amount of water, and sprayed using a spray tower. The plants were placed on a greenhouse seedbed and cultured for 15 days, and the experimental results were then collected. The compound was applied at 120, 60, 30 and 15 g a.i./ha in triplicate, and the results were averaged.

Another data set concerns Echinochloa crusgalli. Description: Seedling stage sealing experiment for water-seeding. The conditions noted are these: 120 g a.i./ha, 15 days, fresh weight control rate.
From the text: as §1, §2, §3

In a further data set the test system is Echinochloa phyllopogon. The description is as above. The conditions noted are these: 120 g a.i./ha, seedling stage sealing, 15 days, fresh weight control rate.
From the text: as §1, §2, §3

Where [1] appears, read: spray, seedling stage sealing for water-seeding.

Regarding `CN1C[C@H](c2cc(F)cc(C(F)(F)F)c2)[C@@H](C(=O)Nc2cnn(C)c2Cl)C1=O` [67′], the “Huaidao (rice cultivar) plant damage level” value with Huaidao (rice cultivar) was 1 (Level 1: growth control rate less than 10%). Also, in the data set on Echinochloa crusgalli (seedling stage sealing), the “Echinochloa crusgalli activity level (growth control rate)” value (“Echinochloa crusgalli activity level” for short) came out at 9. Moreover, the “Echinochloa phyllopogon activity level (growth control rate)” value (from here on “Echinochloa phyllopogon activity level”) with Echinochloa phyllopogon is 8 (Level 8: growth control rate greater than or equal to 90% and less than 100%).
With `Cc1cc([C@H]2CN(C)C(=O)[C@@H]2C(=O)Nc2cnn(C)c2Cl)cc(C(F)(F)F)c1` [69′], in the data set on Huaidao (rice cultivar), the “Huaidao (rice cultivar) plant damage level” value is given as 1 (Level 1: growth control rate less than 10%). Moreover, the “Echinochloa crusgalli activity level” value in the data set with Echinochloa crusgalli (seedling stage sealing) was found to be 9. The “Echinochloa phyllopogon activity level” value in the data set with Echinochloa phyllopogon came to 9.
Take `CC(C)n1ncc(NC(=O)[C@H]2C(=O)N(C)C[C@@H]2c2cccc(C(F)(F)F)c2)c1Cl` [97′]: the “Huaidao (rice cultivar) plant damage level” value in the data set with Huaidao (rice cultivar) is 0. The “Echinochloa crusgalli activity level” value in the data set on Echinochloa crusgalli (seedling stage sealing) is reported as 9. Further, the “Echinochloa phyllopogon activity level” value in the data set with Echinochloa phyllopogon is 9.
`CN1C[C@H](c2cccc(C(F)(F)F)c2)[C@@H](C(=O)Nc2cnn(C)c2F)C1=O` [119′]: the “Huaidao (rice cultivar) plant damage level” value with Huaidao (rice cultivar) was found to be 0. Also, the “Echinochloa crusgalli activity level” value in the data set with Echinochloa crusgalli (seedling stage sealing) came out at 9. Further, in the data set on Echinochloa phyllopogon, the “Echinochloa phyllopogon activity level” value was 9.
Turning to `COCn1ncc(NC(=O)[C@H]2C(=O)N(C)C[C@@H]2c2cccc(C)c2)c1Cl` [127′], in the data set on Huaidao (rice cultivar), the “Huaidao (rice cultivar) plant damage level” value was determined as 0. The “Echinochloa crusgalli activity level” value in the data set on Echinochloa crusgalli (seedling stage sealing) stood at 9. In the data set on Echinochloa phyllopogon, the “Echinochloa phyllopogon activity level” value was 8 (Level 8: growth control rate greater than or equal to 90% and less than 100%).
For the compound `C#CCn1ncc(NC(=O)[C@H]2C(=O)N(C)C[C@@H]2c2cccc(C)c2)c1Cl` [132′], in the data set with Huaidao (rice cultivar), the “Huaidao (rice cultivar) plant damage level” value was 0. Moreover, the “Echinochloa crusgalli activity level” value in the data set on Echinochloa crusgalli (seedling stage sealing) was 7 (Level 7: growth control rate greater than or equal to 80% and less than 90%). For the same compound, the “Echinochloa phyllopogon activity level” value with Echinochloa phyllopogon is 7 (Level 7: growth control rate greater than or equal to 80% and less than 90%).
In the case of `Cc1cccc([C@H]2CN(C)C(=O)[C@@H]2C(=O)Nc2cnn(C)c2C)c1` [134′], the “Huaidao (rice cultivar) plant damage level” value in the data set on Huaidao (rice cultivar) worked out at 0. Moreover, the “Echinochloa crusgalli activity level” value in the data set on Echinochloa crusgalli (seedling stage sealing) was 7 (Level 7: growth control rate greater than or equal to 80% and less than 90%). Besides, the “Echinochloa phyllopogon activity level” value with Echinochloa phyllopogon is 7 (Level 7: growth control rate greater than or equal to 80% and less than 90%).
Turning to `Cc1cccc([C@H]2CN(C)C(=O)[C@@H]2C(=O)Nc2cnn(C)c2C(F)(F)F)c1` [136′], the “Huaidao (rice cultivar) plant damage level” value in the data set on Huaidao (rice cultivar) is 0. Moreover, the “Echinochloa crusgalli activity level” value in the data set with Echinochloa crusgalli (seedling stage sealing) came out at 9. Further, the “Echinochloa phyllopogon activity level” value with Echinochloa phyllopogon turned out to be 9.
Take `C=Cc1c(NC(=O)[C@H]2C(=O)N(C)C[C@@H]2c2cccc(C)c2)cnn1C` [137′]: the “Huaidao (rice cultivar) plant damage level” value with Huaidao (rice cultivar) is listed as 0. In the data set on Echinochloa crusgalli (seedling stage sealing), the “Echinochloa crusgalli activity level” value is 6 (Level 6: growth control rate greater than or equal to 70% and less than 80%). Moreover, the “Echinochloa phyllopogon activity level” value in the data set on Echinochloa phyllopogon was 5 (Level 5: growth control rate greater than or equal to 50% and less than 70%).
On to `Cc1cccc([C@H]2CN(C)C(=O)[C@@H]2C(=O)Nc2cnn(C(C)C)c2C2CC2)c1` [138′], for which, in the data set on Huaidao (rice cultivar), the “Huaidao (rice cultivar) plant damage level” value was 0. Moreover, the “Echinochloa crusgalli activity level” value in the data set on Echinochloa crusgalli (seedling stage sealing) was 7 (Level 7: growth control rate greater than or equal to 80% and less than 90%). The “Echinochloa phyllopogon activity level” value in the data set on Echinochloa phyllopogon is 6 (Level 6: growth control rate greater than or equal to 70% and less than 80%).
Regarding `CN1C[C@H](c2cccc(C3CC3)c2)[C@@H](C(=O)Nc2cnn(C)c2Cl)C1=O` [151′], the “Huaidao (rice cultivar) plant damage level” value with Huaidao (rice cultivar) came out at 0. Also, the “Echinochloa phyllopogon activity level” value in the data set on Echinochloa phyllopogon is 9.
For the compound `CN1C[C@H](c2cccc(C(F)(F)F)c2)[C@@H](C(=O)Nc2cnn(C)c2)C1=O` [156′], the “Huaidao (rice cultivar) plant damage level” value with Huaidao (rice cultivar) is given as 0. Also, the “Echinochloa crusgalli activity level” value in the data set with Echinochloa crusgalli (seedling stage sealing) turned out to be 9. In the data set on Echinochloa phyllopogon, the “Echinochloa phyllopogon activity level” value is 7 (Level 7: growth control rate greater than or equal to 80% and less than 90%).
Consider `C#CCn1ncc(NC(=O)[C@H]2C(=O)N(C)C[C@@H]2c2cccc(C(F)(F)F)c2)c1Cl` [163′], for which the “Huaidao (rice cultivar) plant damage level” value in the data set on Huaidao (rice cultivar) worked out at 0. Moreover, in the data set with Echinochloa crusgalli (seedling stage sealing), the “Echinochloa crusgalli activity level” value is given as 9. The “Echinochloa phyllopogon activity level” value with Echinochloa phyllopogon was 8 (Level 8: growth control rate greater than or equal to 90% and less than 100%).
Turning to `Cc1cc(C)cc([C@H]2CN(C)C(=O)[C@@H]2C(=O)Nc2cnn(C)c2)c1` [274′], the “Huaidao (rice cultivar) plant damage level” value in the data set on Huaidao (rice cultivar) was determined as 0. Besides, in the data set with Echinochloa crusgalli (seedling stage sealing), the “Echinochloa crusgalli activity level” value is 7 (Level 7: growth control rate greater than or equal to 80% and less than 90%).
With `Cc1cc(C)cc([C@H]2CN(C)C(=O)[C@@H]2C(=O)Nc2cnn(C(C)C)c2C2CC2)c1` [278′], the “Huaidao (rice cultivar) plant damage level” value in the data set with Huaidao (rice cultivar) was 0. Besides, the “Echinochloa crusgalli activity level” value in the data set with Echinochloa crusgalli (seedling stage sealing) is 6 (Level 6: growth control rate greater than or equal to 70% and less than 80%).
Turning to `Cc1cc(C)cc([C@H]2CN(C)C(=O)[C@@H]2C(=O)Nc2cnn(C)c2C2=CCCC2)c1` [280′], the “Huaidao (rice cultivar) plant damage level” value in the data set on Huaidao (rice cultivar) is reported as 0. Besides, in the data set on Echinochloa crusgalli (seedling stage sealing), the “Echinochloa crusgalli activity level” value was 6 (Level 6: growth control rate greater than or equal to 70% and less than 80%).
Take `CCc1cc(C)cc([C@H]2CN(C)C(=O)[C@@H]2C(=O)Nc2cnn(C)c2Cl)c1` [287′]: the “Huaidao (rice cultivar) plant damage level” value in the data set with Huaidao (rice cultivar) is reported as 0. The “Echinochloa phyllopogon activity level” value in the data set with Echinochloa phyllopogon was 9.
For `Cc1cc(C2CC2)cc([C@H]2CN(C)C(=O)[C@@H]2C(=O)Nc2cnn(C)c2Cl)c1` [289′] the same measures were 0 and 9.
For the compound `Cc1cc(C)cc([C@H]2CN(C)C(=O)[C@@H]2C(=O)N(CC2CC2)c2cnn(C)c2Cl)c1` [367′], the “Huaidao (rice cultivar) plant damage level” value in the data set on Huaidao (rice cultivar) is reported as 1 (Level 1: growth control rate less than 10%). For the same compound, the “Echinochloa crusgalli activity level” value in the data set with Echinochloa crusgalli (seedling stage sealing) came out at 9.
For the compound `Cc1cccc([C@H]2CN(C)C(=O)[C@@H]2C(=O)Nc2cnn(C(C)(C)C)c2Cl)c1` [384′], the “Huaidao (rice cultivar) plant damage level” value in the data set on Huaidao (rice cultivar) amounted to 0. In addition, the “Echinochloa crusgalli activity level” value with Echinochloa crusgalli (seedling stage sealing) was 6 (Level 6: growth control rate greater than or equal to 70% and less than 80%).
As for `Cc1cc(C)cc([C@H]2CN(C)C(=O)[C@@H]2C(=O)Nc2cnn(C)c2C(F)(F)C(F)(F)F)c1` [428′], the “Huaidao (rice cultivar) plant damage level” value in the data set on Huaidao (rice cultivar) was 0. In addition, in the data set with Echinochloa crusgalli (seedling stage sealing), the “Echinochloa crusgalli activity level” value was 6 (Level 6: growth control rate greater than or equal to 70% and less than 80%).
Regarding `COc1cc([C@H]2CN(C)C(=O)[C@@H]2C(=O)Nc2cnn(C)c2Cl)cc(OC)c1OC` [449′], in the data set with Huaidao (rice cultivar), the “Huaidao (rice cultivar) plant damage level (growth control rate)” value (shortened to “Huaidao … (growth control rate)”) is given as 0. Besides, in the data set with Echinochloa crusgalli (setting [1]), the “Echinochloa crusgalli activity level” value is 6 (Level 6: growth control rate greater than or equal to 70% and less than 80%).
As to `Cc1cccc([C@H]2CN(C)C(=O)[C@@H]2C(=O)Nc2cnn(C(=O)OC(C)(C)C)c2Cl)c1` [463′], the “Huaidao … (growth control rate)” value with Huaidao (rice cultivar) is 0. Moreover, in the data set with Echinochloa crusgalli (setting [1]), the “Echinochloa crusgalli activity level” value was 6 (Level 6: growth control rate greater than or equal to 70% and less than 80%).
As to `CN1C[C@H](c2cccc(C(F)(F)F)c2)[C@@H](C(=O)Nc2cnn(C)c2C(N)=O)C1=O` [482′], in the data set with Huaidao (rice cultivar), the “Huaidao … (growth control rate)” value was found to be 0. Moreover, the “Echinochloa crusgalli activity level” value in the data set on Echinochloa crusgalli (setting [1]) is 9.
For `Cc1cc(C)cc([C@H]2CN(C)C(=O)[C@@H]2C(=O)N(C)c2cnn(C)c2Cl)c1` [490′] the same measures were 0 and 9.
For `CN1C[C@H](c2cc(Br)cc(C(F)F)c2)[C@@H](C(=O)Nc2cnn(C)c2C2CC2)C1=O` [513′] the same measures were 0 and 9.
For `Cc1cccc([C@H]2CN(C)C(=O)[C@@H]2C(=O)Nc2cnn(C)c2[S+](C)[O-])c1` (some centres unmarked) [530′] the same measures were 0 and 9.
Regarding `Cc1cc(C)cc([C@H]2CN(C)C(=O)[C@@H]2C(=O)Nc2cnn(C)c2-c2cscn2)c1` [551′], in the data set on Huaidao (rice cultivar), the “Huaidao … (growth control rate)” value is listed as 0. Besides, in the data set with Echinochloa crusgalli (setting [1]), the “Echinochloa crusgalli activity level” value amounted to 9.
Take `CN1CC(c2csc3ccccc23)C(C(=O)Nc2cnn(C)c2Cl)C1=O` (centres unmarked) [Compound 359]: the “Huaidao (rice cultivar) plant damage level” value with Huaidao (rice cultivar) is given as 0. Also, the “Echinochloa phyllopogon activity level” value with Echinochloa phyllopogon was 7 (Level 7: growth control rate greater than or equal to 80% and less than 90%).
Consider `CN1CC(c2cccc(C(F)(F)F)c2)C(C(=O)Nc2cnn(C)c2CF)C1=O` (centres unmarked) [Compound 477], for which the “Huaidao … (growth control rate)” value in the data set on Huaidao (rice cultivar) is 0. Moreover, the “Echinochloa crusgalli activity level” value in the data set on Echinochloa crusgalli (setting [1]) is given as 9.
Turning to `Cc1cc(C)cc(C2CN(C)C(=O)C2C(=O)Nc2cnn(C)c2N(C)C)c1` (centres unmarked) [Compound 499], the “Huaidao … (growth control rate)” value in the data set on Huaidao (rice cultivar) is 0. Further, the “Echinochloa crusgalli activity level” value in the data set on Echinochloa crusgalli (setting [1]) was 8 (Level 8: growth control rate greater than or equal to 90% and less than 100%).
